# According to patent EP2525820B1, “NOVEL CLASS OF MONOSPECIFIC AND BISPECIFIC HUMANIZED ANTIBODIES THAT TARGET THE INSULIN-LIKE GROWTH FACTOR TYPE I RECEPTOR (IGF-1R)” (Immunomedics, Inc., priority 2010, dated 2011):
# How the values were obtained:
# RII isoform of PKA = RII isoform of PKA (Homo sapiens, UniProt P13861); conditions: cited from earlier work
# CAG human myeloma cells = type: in vivo, SCID mice
# Procedure: CAG human myeloma cells are grown in cell culture to a density that allows 1 million cells to be harvested for transplantation to 6-8-week old female SCID mice obtained from Charles River Laboratories (Frederick, MD). The mice are immunosuppressed by pretreatment with fludarabine and cyclophosphamide 3 days before intravenous injection of 5-10 x […] myeloma cells as described in Stein et al. (Blood. 2004; 104:3705-11). Mice are examined daily for signs of distress or hind-leg paralysis, and weighed weekly. Paralysis of the hind legs or a weight loss of ≥ 20% is used as the survival endpoint, when the animals are euthanized. Groups of 8-10 mice are used. […] The effects of combining bortezomib with hR1 are evaluated in the same myeloma model. Treatments are given as two i.p. doses/week for 3 weeks, initiated on day 5 after injection of the myeloma cells. […] Treatment with hR1 at 0.6 mg/mouse repeated twice weekly for 3 weeks increases the median survival time to 60 days. When bortezomib and hR1 treatments are combined, the median survival time is increased further to 79 days for 0.5 mg bortezomib + 0.6 mg hR1, which is significant (P=0.04).
# DDD = DDD of RII / RIIα dimers; read-out: binding constant for DDD; cited from earlier work
# Chain of DDD (P13861 2-45 limits assumed): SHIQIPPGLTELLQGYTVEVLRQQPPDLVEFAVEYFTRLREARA
# Chain of RII isoform of PKA (P13861 whole entry, canonical isoform): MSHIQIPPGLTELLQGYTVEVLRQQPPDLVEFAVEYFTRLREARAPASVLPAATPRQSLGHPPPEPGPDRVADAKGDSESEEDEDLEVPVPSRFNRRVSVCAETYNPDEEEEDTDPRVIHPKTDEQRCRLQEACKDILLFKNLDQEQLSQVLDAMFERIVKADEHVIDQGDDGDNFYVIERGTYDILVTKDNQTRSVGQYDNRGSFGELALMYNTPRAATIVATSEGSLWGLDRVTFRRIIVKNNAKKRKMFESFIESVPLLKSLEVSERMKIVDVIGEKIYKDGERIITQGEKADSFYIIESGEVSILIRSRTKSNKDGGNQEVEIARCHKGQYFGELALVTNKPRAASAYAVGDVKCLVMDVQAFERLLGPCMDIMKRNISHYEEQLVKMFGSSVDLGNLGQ
compound,measurement,setting,value
QIEYVAKQIVDYAIHQA (SEQ ID NO:39) [SuperAKAP-IS],selectivity for the RII isoform of PKA compared with the RI isoform,RII isoform of PKA,five order of magnitude higher selectivity
CC(C)C[C@H](NC(=O)[C@H](Cc1ccccc1)NC(=O)c1cnccn1)B(O)O [bortezomib],increase of median survival,"CAG human myeloma cells; 0.5 mg/kg, versus untreated control mice",21.2%
same,"tolerability, body-weight loss","CAG human myeloma cells; mouse, in vivo, 0.5 mg/kg","well tolerated, with no body-weight loss"
same,median survival,"CAG human myeloma cells; two i.p. doses/week for 3 weeks from day 5, bortezomib 0.5 mg/kg, hR1 0.6 mg/mouse, untreated control 33 days",40 days
QIEYLAKQIVDNAIQQA (SEQ ID NO: 17) [AKAP-IS],Kd,DDD,400 pM
